In PubChem BioAssay (NCI):
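Compound exposure: 48 hours, 5 concentrations, 96-well plates. The concentration for 50% growth inhibition is given as GI50. TGI: concentration producing complete growth inhibition.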

How the values were obtained:
Assay in all cases: NCI tumour cell line growth inhibition, 48 h; in the data active = GI50 below about 0.43 µM; inactive = the rest
[1] = tested on: U251 CNS
[2] = tested on: SF-295 CNS
[3] = tested on: NCI/ADR-RES ovarian
[4] = tested on: MOLT-4 leukemia
[5] = tested on: UACC-257 melanoma
[6] = tested on: SNB-19 CNS
[7] = tested on: MDA-MB-231 breast
[8] = tested on: TK-10 renal
[9] = tested on: SK-OV-3 ovarian
[10] = tested on: OVCAR-5 ovarian
[11] = tested on: SK-MEL-28 melanoma
[12] = tested on: DU-145 prostate
[13] = tested on: LOX IMVI melanoma
[14] = tested on: UACC-62 melanoma
[15] = tested on: SNB-75 CNS
[16] = tested on: HT29 colon
[17] = tested on: COLO 205 colon
[18] = tested on: HCT-116 colon
[19] = tested on: OVCAR-3 ovarian
[20] = tested on: KM12 colon
[21] = tested on: UO-31 renal
[22] = tested on: HS 578T breast
[23] = tested on: PC-3 prostate
[24] = tested on: MDA-MB-435
[25] = tested on: RPMI-8226 leukemia
[26] = tested on: HL-60(TB) leukemia
[27] = tested on: HOP-92 NSCLC
[28] = tested on: HCC-2998 colon
[29] = tested on: HCT-15 colon
[30] = tested on: SN12C renal
[31] = tested on: RXF 393 renal
[32] = tested on: OVCAR-4 ovarian
[33] = tested on: 786-0 renal
[34] = tested on: BT-549 breast
[35] = tested on: CAKI-1 renal
[36] = tested on: OVCAR-8 ovarian
[37] = tested on: K-562 leukemia
[38] = tested on: ACHN renal
[39] = tested on: NCI-H23 lung
[40] = tested on: MCF7 breast
[41] = tested on: NCI-H522 lung
[42] = tested on: T-47D breast
[43] = tested on: CCRF-CEM leukemia
[44] = tested on: SW-620 colon
[45] = tested on: NCI-H460 lung
[46] = tested on: SK-MEL-2 melanoma
[47] = tested on: A549 NSCLC
[48] = tested on: SR leukemia
[49] = tested on: SF-268 CNS
[50] = tested on: SK-MEL-5 melanoma
[51] = tested on: NCI-H226 lung
[52] = tested on: M14 melanoma
[53] = tested on: EKVX NSCLC
[54] = tested on: SF-539 CNS
[55] = tested on: HOP-62 NSCLC
[56] = tested on: A498 renal
[57] = tested on: IGROV1 ovarian
[58] = tested on: MALME-3M melanoma

O=S1CCN(Cc2ccc(-c3ccc4ncnc(Nc5ccc(OCc6ccccc6)c(Cl)c5)c4c3)o2)CC1
> 19.9 µM: TGI [53]
active: GI50 [8] 0.116 µM | GI50 [9] 0.0917 µM | GI50 [53] 0.112 µM
> 16.9 µM: TGI [13]
> 21.2 µM: TGI [27]
> 20.7 µM: TGI [26]
24.3 µM: TGI [56]
> 20.5 µM: TGI [34]
> 23.4 µM: TGI [14]
> 25 µM: TGI [1] | TGI [2] | TGI [3] | TGI [4] | TGI [5] | TGI [6] | TGI [7] | TGI [8] | TGI [9] | TGI [10] | TGI [11] | TGI [12] | TGI [15] | TGI [17] | TGI [18] | TGI [19] | TGI [20] | TGI [21] | TGI [22] | TGI [23] | TGI [24] | TGI [25] | TGI [29] | TGI [30] | TGI [31] | TGI [32] | TGI [33] | TGI [35] | TGI [36] | TGI [37] | TGI [38] | TGI [39] | TGI [40] | TGI [41] | TGI [42] | TGI [43] | TGI [44] | TGI [45] | TGI [47] | TGI [48] | TGI [49] | TGI [51] | TGI [52] | TGI [54] | TGI [55] | TGI [57] | TGI [58]
16.7 µM: TGI [46]
23.4 µM: TGI [28]
inactive: GI50 [1] 14.9 µM | GI50 [2] 9.76 µM | GI50 [3] 8.08 µM | GI50 [4] 9.06 µM | GI50 [5] 8.55 µM | GI50 [6] > 25 µM | GI50 [7] 14.9 µM | GI50 [10] 12.1 µM | GI50 [11] 14 µM | GI50 [12] 7.52 µM | GI50 [13] 8.51 µM | GI50 [14] 10.7 µM | GI50 [15] > 16.6 µM | GI50 [16] 6.9 µM | GI50 [17] 11.7 µM | GI50 [18] 11.3 µM | GI50 [19] 8.08 µM | GI50 [20] 9.22 µM | GI50 [21] 6.32 µM | GI50 [22] > 21.6 µM | GI50 [23] 11.8 µM | GI50 [24] 8.95 µM | GI50 [25] 12.4 µM | GI50 [26] 10.6 µM | GI50 [27] 4.91 µM | GI50 [28] 7.19 µM | GI50 [29] 7.78 µM | GI50 [30] 14.8 µM | GI50 [31] > 15.3 µM | GI50 [32] 13.5 µM | GI50 [33] 10.7 µM | GI50 [34] 9.62 µM | GI50 [35] 0.635 µM | GI50 [36] 11.7 µM | GI50 [37] 10.1 µM | GI50 [38] 0.656 µM | GI50 [39] 13.3 µM | GI50 [40] > 15.2 µM | GI50 [41] 3.68 µM | GI50 [42] 5.72 µM | GI50 [43] 9.07 µM | GI50 [44] 8.63 µM | GI50 [45] 10.2 µM | GI50 [46] 7.46 µM | GI50 [47] 8.02 µM | GI50 [48] 7.57 µM | GI50 [49] > 22.3 µM | GI50 [50] 7.9 µM | GI50 [51] > 16.5 µM | GI50 [52] 10 µM | GI50 [54] > 15.3 µM | GI50 [55] > 25 µM | GI50 [56] 5.82 µM | GI50 [57] 0.561 µM | GI50 [58] 10.1 µM
> 18.8 µM: TGI [16]
> 15.7 µM: TGI [50]
